Experimental findings from US20230279433A1, “METHODS AND COMPOSITIONS FOR THE PRODUCTION OF ADENO-ASSOCIATED VIRUS” (priority 2021, published 2023) are described below.

Structures are written as SMILES.

What all share (format): cell-based
Test [1] deals with second HEK293 cell line. Nature of the test: AAV productivity at different DMSO concentrations, shake flasks. Here is the method: (§1) Cell transfection was performed generally as described in Grieger et al. (2016) Molecular Therapy 24(2): 287-297. Briefly, transfection mixes were prepared by mixing calculated volumes of vector(s), transfection media, and polyethylenimine (PEI), all at ambient temperature, and allowed to equilibrate before the transfection mixes were added to the cells. Post-transfection bioreactor setpoint shifts were performed 2 hours post-transfection, and cells were harvested 72 hours post-transfection. Harvested cells were lysed as described in Grieger et al. (2016) Molecular Therapy 24(2): 287-297. Crude lysate samples were collected following centrifugation to remove cellular debris. Productivity was measured by vector genome titer and capsid yield. Vector genome (VG) titer was determined by droplet digital PCR (ddPCR) by standard methods using primer/probe sets specific to the transgene payload of the vector comprising the transgene. Capsid yield was determined using enzyme-linked immunosorbent assays (ELISAs) by standard methods with an immobilized antibody directed against an epitope of the capsid as encoded by the vector comprising the capsid sequences. Percentage of intact vector genomes (% Full capsids) was calculated by dividing the vector genome productivity determined by ddPCR by the number of capsids determined by ELISA.
The conditions of DMSO supplementation were further tested using different representative AAV particles. Experiments were performed with a second HEK293 cell line according to the methods described in Example 1 using shake flasks.
AAV productivity, in terms of vector genome (VG) titer (FIGS. 9A and 10A), capsid yield (FIGS. 9B and 10B), and percent intact vector genomes (% Full; FIGS. 9C and 10C), was measured as described in Example 1.

In test [2] the test system is AAV producer cells (HEK293 cells). Nature of the test: AAV productivity with culture media additives supplemented two hours post-transfection (shake flasks). Here is the method:
For each parameter tested, HEK293 cells were expanded by shake flask culture with a target seed density of >0.25E6 viable cells/mL and a target final density of <6E6 viable cells/mL. […]
as §1, with “Harvested cells were lysed as described in Grieger et al. (2016) Molecular Therapy 24(2): 287-297. Crude lysate samples were collected following centrifugation to remove cellular debris.” left out, “ELISA. […]” for “ELISA.”

Test [3] relates to second HEK293 cell line. Nature of the test: AAV productivity with DMSO supplementation 30-120 minutes post-transfection, 3 L single-use bioreactors. The note with it: DMSO 120 minutes vs 30 minutes post-transfection, pH 7.0, 39° C. As to the method: as §1
Based on the findings above, the effects of post-transfection pH, and the effect of supplementing the culture media with DMSO at 30-120 minutes post-transfection were further tested using a different representative AAV particle. Experiments were performed with a second HEK293 cell line according to the methods described in Examples 1 and 5 using 3 L single-use bioreactors.
AAV productivity, in terms of vector genome (VG) titer (FIG. 8A), capsid yield (FIG. 8B), and percent intact vector genomes (% Full; FIG. 8C), was measured as described in Example 1.

For test [4], the system named is AAV producer cells (HEK293 cells). Nature of the test: DMSO time course analysis of AAV productivity. The note with it: 1.5% (v/v) DMSO added two hours pre-transfection and up to 30 minutes post-transfection; compared to the other time points tested. Here is the method:
For each parameter tested, HEK293 cells were expanded by shake flask culture with a target seed density of >0.25E6 viable cells/mL and a target final density of <6E6 viable cells/mL. Expanded cells were inoculated into an Applikon 3 L Glass Bioreactor containing the appropriate amount of cell culture medium prior to transfection at a 2 L working volume.
as §1, with “Post-transfection bioreactor setpoint shifts were performed 2 hours post-transfection, and cells were harvested 72 hours post-transfection. Harvested cells were lysed as described in Grieger et al. (2016) Molecular Therapy 24(2): 287-297. Crude lysate samples were collected following centrifugation to remove cellular debris.” left out, “ELISA. […]” for “ELISA.”

In the case of `C[S+](C)[O-]` [DMSO, dimethyl sulfoxide], the VG titer result was “increased” in test [1] (FIG. 9A, 0.5% to 2.25% DMSO two hours post-transfection, up to a DMSO concentration of 1.5%); “increased” in test [1] (FIG. 10A, 0.75% DMSO two hours post-transfection compared with 0% DMSO); “comparable” in test [1] (FIG. 10A, 1.5% DMSO two hours post-transfection compared with 0.75% DMSO); “general increase” in test [2] (additive added two hours post-transfection, all tested concentrations (Table 5), over control conditions without additive, ddPCR, crude lysate). Besides, the capsid titer result in test [1] (FIG. 9B, 0.5% to 2.25% DMSO two hours post-transfection, up to a DMSO concentration of 1.5%) was “increased or comparable”; in test [1] (FIG. 10B, 0.75% DMSO two hours post-transfection compared with 0% DMSO), “increased”; in test [1] (FIG. 10B, 1.5% DMSO two hours post-transfection compared with 0.75% DMSO) it was “decreased”. Further, the percent full capsids entry in test [1] (FIG. 9C, 0.5% to 2.25% DMSO two hours post-transfection) is “increased”; in test [1] (FIG. 10C, 0.75% DMSO two hours post-transfection compared with 0% DMSO), “comparable”; in test [1] (FIG. 10C, 1.5% DMSO two hours post-transfection compared with 0.75% DMSO), “increased”; in test [2] (DMSO added two hours post-transfection, compared to the other additives), “higher percent full capsids”. Moreover, the VG titers result in test [3] is reported as “similar”. In addition, in test [3], the capsid yields entry is “similar”. The intact vector genomes entry in test [3] is given as “similar”. The “percent yield of full capsids” value in test [4] is given as “higher percent yield of full capsids”.
